# Measurements as given in patent US20100159093A1, “METHOD OF TREATING FOODSTUFF” (priority 2008, published 2010).
# Legend:
# [1] = test system: natural microflora in raw milk (total bacteria count); assay: Growth of the natural microflora (total bacteria count) in raw milk under nitrogen gas; type: cell-based
# Description: With the device shown in FIG. 1, the effect of nitrogen gas on the natural microflora in raw milk (volume approximately 125 ml) was examined by replacing the air (control) in an open vessel (volume approximately 250 ml) at a constant temperature, with a flow-through of 100% nitrogen gas (purity 99.999%, manufacturer AGA) at two different flow-through rates: N1=120 ml/min, N2=40 ml/min. The apparatus comprises a nitrogen source (1), which is connected by means of a flow channel (2) to two sample bottles (3 and 4). The device also comprises a bottle (5) which contains a reference sample. Filters (6a, 6b, 7a, 7b and 8a, 8b) are connected to the gas flow channels (2), which are made of silicon pipe/hose. The pore size of the filters is 0.2 μm. A flow meter is attached to the flow channels (2), in order to allow the rate at which the gas flows are to be adjusted. The sample bottles are placed in a water bath (10). […] and magnetic mixers (12) are used to mix the contents of the bottles. The water of the water bath (10) is cooled with a cooling coil (11) which is connected to a cooling unit (13), and the entire test apparatus is placed in a cold store, the temperature of which is 5° C. (except the nitrogen bottle). The water temperature of the water bath (10) is adjusted to a desired temperature with the help of an adjustable submersible thermostat (14). The temperature of the raw milk in the sample bottles was adjusted by means of the thermostat (14) of the water bath to bring the temperature of the milk to 6.0° C., 7.0° C. or 12.0° C. The temperature variation in the vessel was less than ±0.1° C. […] The effect of nitrogen gas on the growth of the microflora in a raw milk sample at 6.0° C. Two flow-through rates of the nitrogen gas were used in the study: (▴) 40 ml/min and ([…])120 ml/min. […] The following bacterial levels were determined in the samples: The effect of nitrogen gas on the growth of the microflora in a raw milk sample at 7.0° C. Two flow-through rates of the nitrogen gas were used in the study: (▴) 40 ml/min and ([…])120 ml/min. […] The following bacterial levels were determined in the samples: The effect of nitrogen gas on the growth of the microflora in a raw milk sample at 12.0° C. Two flow-through rates of the nitrogen gas were used in the study: (▴) 40 ml/min and ([…]) 120 ml/min. […] The following bacterial levels were determined in the samples: […]
# [2] = test system: microaerobic/fermentative microbes (such as lactobacilli); assay: Growth of lactobacillus-type bacteria in raw milk under nitrogen gas; type: cell-based; conditions: 12.0° C., N1 environment (120 ml/min), Example 5, FIG. 5G
# Description: With the device shown in FIG. 1, the effect of nitrogen gas on the natural microflora in raw milk (volume approximately 125 ml) was examined by replacing the air (control) in an open vessel (volume approximately 250 ml) at a constant temperature, with a flow-through of 100% nitrogen gas (purity 99.999%, manufacturer AGA) at two different flow-through rates: N1=120 ml/min, N2=40 ml/min. The temperature of the raw milk in the sample bottles was adjusted by means of the thermostat (14) of the water bath to bring the temperature of the milk to 6.0° C., 7.0° C. or 12.0° C. The temperature variation in the vessel was less than ±0.1° C. The effect of nitrogen gas on the growth of the microflora in a raw milk sample at 12.0° C. Two flow-through rates of the nitrogen gas were used in the study: (▴) 40 ml/min and ([…]) 120 ml/min. […] The following bacterial levels were determined in the samples: FIG. 5A: Total bacteria count (p.m.y./ml) FIG. 5B: Total number of psychrotrophs (p.m.y./ml) FIG. 5C: Total number of proteolytic bacteria (p.m.y./ml) FIG. 5D: Total number of lipolytic bacteria (p.m.y./ml) FIG. 5E: Total number of bacteria producing phospholipase (p.m.y./ml). […]
# [3] = test system: psychrotrophs in raw milk; conditions: 7° C., closed system, Dechemi et al.; cited from earlier work
# [4] = test system: psychrotrophs; assay: Growth of psychrotrophs in raw milk under nitrogen gas; type: cell-based; conditions: 12.0° C., N1 environment (120 ml/min)
# Description: With the device shown in FIG. 1, the effect of nitrogen gas on the natural microflora in raw milk (volume approximately 125 ml) was examined by replacing the air (control) in an open vessel (volume approximately 250 ml) at a constant temperature, with a flow-through of 100% nitrogen gas (purity 99.999%, manufacturer AGA) at two different flow-through rates: N1=120 ml/min, N2=40 ml/min. The temperature of the raw milk in the sample bottles was adjusted by means of the thermostat (14) of the water bath to bring the temperature of the milk to 6.0° C., 7.0° C. or 12.0° C. The temperature variation in the vessel was less than ±0.1° C. The effect of nitrogen gas on the growth of the microflora in a raw milk sample at 12.0° C. Two flow-through rates of the nitrogen gas were used in the study: (▴) 40 ml/min and ([…]) 120 ml/min. […] The following bacterial levels were determined in the samples: The effect of nitrogen gas on the growth of the microflora in a raw milk sample at 12.0° C. Two flow-through rates of the nitrogen gas were used in the study: (▴) 40 ml/min and ([…]) 120 ml/min. […] The following bacterial levels were determined in the samples: […]
# [5] = 6.0° C., N2 environment (40 ml/min)
structure (smiles),measurement,setting,value
N#N [nitrogen gas],growth of the bacteria,"[1]; 6.0° C., N1 environment (120 ml/min), measurement period of 11 days",totally prevents the growth of the bacteria
same,growth of the microbes,[1]; [5],capable of preventing the growth of the microbes for 7 days
same,increase of the microbe level during a period of 3 days,[1]; [5],less than 1 log-unit
same,total growth/the growth of the microbes,"[1]; 7.0° C., N1 environment (120 ml/min), prevents = log increases by less than one unit in 3 days",still prevents
same,growth of the total microbial count,"[1]; 7.0° C., N2 environment (40 ml/min)","delays the growth of the total microbial count, although it cannot totally prevent the growth"
same,growth of the total microbial count,"[1]; 12.0° C., N1 environment (120 ml/min), Example 4 sample",still prevents or nearly prevents the growth of the total microbial count
same,growth of the total number of the microbes,"[1]; 12.0° C., N1 environment (120 ml/min), Example 5 sample",substantially delay the growth of the total number of the microbes
same,growth of microaerobic/fermentative microbes (such as lactobacilli),[2],able to delay the growth
same,"effect of inhibiting the protease activity, among the gas alternatives tested",[3],neither the best nor the worst one
same,"preventing the growth of the microbes and inhibiting the lipase activity, among the protecting gases used",[3],least effective
same,growth of the psychrotrophs,[4]; Example 4 sample,"no longer prevents the growth of the psychrotrophs, instead it delays it"
same,growth of the psychrotrophs,[4]; Example 5 sample,substantially delay
